We go through 22 compounds from patent EP4553080A1, “NUCLEOSIDE DERIVATIVES AS ANTIVIRAL AGENTS AGAINST CORONAVIRUSES” (Ustav Organicke Chemie a Biochemie AV CR, v.v.i., priority 2023, dated 2025).

For this assay, the target named is nsp14 methyltransferase from SARS-CoV-2 (Severe acute respiratory syndrome coronavirus 2, UniProt P0DTD1). Nature of the assay: Nsp14 MTase activity inhibition in vitro (EchoMS assay). It is filed as biochemical. The conditions noted are these: recombinant nsp14 protein expressed in E. coli; dose-response curve.

The structures appear in SMILES notation.

Consider `Cc1noc(-c2ccccc2)c1CSC[C@H]1O[C@@H](n2nc(C#Cc3cncnc3)c3c(N)ncnc32)[C@H](O)[C@@H]1O` [Compound 218b], for which the 50% inhibitory concentration (IC50) was 0.03 to 0.1 µM.
Consider `Cc1noc(-c2ccccc2)c1CSC[C@H]1O[C@@H](n2nc(-c3ccc(C#N)cc3)c3c(N)ncnc32)[C@H](O)[C@@H]1O` [Compound 219b, 4-(4-Amino-1-((2R,3R,4S,5S)-3,4-dihydroxy-5-((((3-methyl-5-phenylisoxazol-4-yl)methyl)thio)methyl)tetrahydrofuran-2-yl)-1H-pyrazolo[3,4-d]pyrimidin-3-yl)benzonitrile], for which the IC50 lay within 0.03 to 0.1 µM.
The same measure for `Cc1noc(-c2ccccc2)c1CSC[C@H]1O[C@@H](n2nc(-c3cccc(C#N)c3)c3c(N)ncnc32)[C@H](O)[C@@H]1O` [Compound 220b, 3-(4-Amino-1-((2R,3R,4S,5S)-3,4-dihydroxy-5-((((3-methyl-5-phenylisoxazol-4-yl)methyl)thio)methyl)tetrahydrofuran-2-yl)-1H-pyrazolo[3,4-d]pyrimidin-3-yl)benzonitrile]: 0.1 to 0.5 µM.
With `Cc1noc(-c2ccccc2)c1CSC[C@H]1O[C@@H](n2nc(-c3cccc(C(N)=O)c3)c3c(N)ncnc32)[C@H](O)[C@@H]1O` [Compound 221b, 3-(4-Amino-1-((2R,3R,4S,5S)-3,4-dihydroxy-5-((((3-methyl-5-phenylisoxazol-4-yl)methyl)thio)methyl)tetrahydrofuran-2-yl)-1H-pyrazolo[3,4-d]pyrimidin-3-yl)benzamide], the half-maximal inhibitory concentration (IC50) was 0.03 to 0.1 µM.
The same measure for `Cc1noc(-c2ccccc2)c1CSC[C@H]1O[C@@H](n2nc(-c3ccc(CC#N)cc3)c3c(N)ncnc32)[C@H](O)[C@@H]1O` [Compound 222b, 2-(4-(4-Amino-1-((2R,3R,4S,5S)-3,4-dlhydroxy-5-((((3-methyl-5-phenylisoxazol-4-yl)methyl)thio)methyl)tetrahydrofuran-2-yl)-1H-pyrazolo[3,4-d]pyrimidin-3-yl)phenyl)acetonitrile]: 0.01 to 0.03 µM; for `Cc1noc(-c2ccccc2)c1CSC[C@H]1O[C@@H](n2nc(CCCC#N)c3c(N)ncnc32)[C@H](O)[C@@H]1O` [Compound 223b, 4-(4-Amino-1-((2R,3R,4S,5S)-3,4-dihydroxy-5-((((3-methyl-5-phenylisoxazol-4-yl)methyl)thio)methyl)tetrahydrofuran-2-yl)-1H-pyrazolo[3,4-d]pyrimidin-3-yl)butanenitrile]: 0.03 to 0.1 µM.
Regarding `Cc1noc(-c2ccc3c(c2)OCO3)c1CSC[C@H]1O[C@@H](n2nc(-c3ccc(CC#N)cc3)c3c(N)ncnc32)[C@H](O)[C@@H]1O` [Compound 226, 2-(4-(4-Amino-1-((2R,3R,4S,5S)-5-((((5-(benzo[d][1,3]dioxol-5-yl)-3-methylisoxazol-4-yl)methyl)thio)methyl)-3,4-dihydroxytetrahydrofuran-2-yl)-1H-pyrazolo[3,4-d]pyrimidin-3-yl)phenyl)acetonitrile], the 50% inhibitory concentration (IC50) is 0.01 to 0.03 µM.
Take `Cn1cnc(-c2ccccc2)c1CSC[C@H]1O[C@@H](n2cc(-c3ccc(C#N)cc3)c3c(N)ncnc32)[C@H](O)[C@@H]1O` [Compound 230b, 4-(4-Amino-7-((2R,3R,4S,5S)-3,4-dihydroxy-5-((((1-methyl-4-phenyl-1H-imidazol-5-yl)methyl)thio)methyl)tetrahydrofuran-2-yl)-7H-pyrrolo[2,3-d]pyrimidin-5-yl)benzonitrile]: the IC50 fell in the range of 0.1 to 0.5 µM.
As for `Cc1nsc(-c2ccccc2)c1CSC[C@H]1O[C@@H](n2cc(-c3ccc(C#N)cc3)c3c(N)ncnc32)[C@H](O)[C@@H]1O` [Compound 231b, 4-(4-Amino-7-((2R,3R,4S,5S)-3,4-dihydroxy-5-((((3-methyl-5-phenylisothiazol-4-yl)methyl)thio)methyl)tetrahydrofuran-2-yl)-7H-pyrrolo[2,3-d]pyrimidin-5-yl)benzonitrile], the IC50 lay in the range of 0.1 to 0.5 µM.
The same measure for `Cc1ncnc(-c2ccccc2)c1CSC[C@H]1O[C@@H](n2cc(-c3ccc(C#N)cc3)c3c(N)ncnc32)[C@H](O)[C@@H]1O` [Compound 232b, 4-(4-Amino-7-((2R,3R,4S,5S)-3,4-dihydroxy-5-((((4-methyl-6-phenylpyrimidin-5-yl)methyl)thio)methyl)tetrahydrofuran-2-yl)-7H-pyrrolo[2,3-d]pyrimidin-5-yl)benzonitrile]: 0.03 to 0.1 µM.
The same measure for `Cc1noc(-c2ccc(N)cc2)c1CSC[C@H]1O[C@@H](n2cc(-c3ccc(C#N)cc3)c3c(N)ncnc32)[C@H](O)[C@@H]1O` [Compound 234b, 4-(4-Amino-7-((2R,3R,4S,5S)-5-((((5-(4-aminophenyl)-3-methylisoxazol-4-yl)methyl)thio)methyl)-3,4-dihydroxytetrahydrofuran-2-yl)-7H-pyrrolo[2,3-d]pyrimidin-5-yl)benzonitrile]: 0.01 to 0.03 µM; for `Cc1ccc(-c2onc(C)c2CSC[C@H]2O[C@@H](n3cc(-c4ccc(C#N)cc4)c4c(N)ncnc43)[C@H](O)[C@@H]2O)cc1C` [Compound 235b, 4-(4-Amino-7-((2R,3R,4S,5S)-5-((((5-(3,4-dimethylphenyl)-3-methylisoxazol-4-yl)methyl)thio)methyl)-3,4-dihydroxytetrahydrofuran-2-yl)-7H-pyrrolo[2,3-d]pyrimidin-5-yl)benzonitrile]: 0.03 to 0.1 µM.
The same measure for `Cc1noc(-c2ccc3c(c2)OCO3)c1CSC[C@H]1O[C@@H](n2cc(-c3ccc(C#N)cc3)c3c(N)ncnc32)[C@H](O)[C@@H]1O` [Compound 236b]: 0.01 to 0.03 µM.
As to `Cn1cnc(-c2ccccc2)c1CSC[C@H]1O[C@@H](n2cc(C#Cc3cncnc3)c3c(N)ncnc32)[C@H](O)[C@@H]1O` [Compound 237c, (2R,3R,4S,5S)-2-(4-Amino-5-(pyrimidin-5-ylethynyl)-7H-pyrrolo[2,3-d]pyrimidin-7-yl)-5-((((1-methyl-4-phenyl-1H-imidazol-5-yl)methyl)thio)methyl)tetrahydrofuran-3,4-diol], the half-maximal inhibitory concentration (IC50) is 0.03 to 0.1 µM.
On to `Cc1nsc(-c2ccccc2)c1CSC[C@H]1O[C@@H](n2cc(C#Cc3cncnc3)c3c(N)ncnc32)[C@H](O)[C@@H]1O` [Compound 238c, (2R,3R,4S,5S)-2-(4-Amino-5-(pyrimidin-5-ylethynyl)-7H-pyrrolo[2,3-d]pyrimidin-7-yl)-5-((((3-methyl-5-phenylisothiazol-4-yl)methyl)thio)methyl)tetrahydrofuran-3,4-diol], for which the IC50 fell in the range of 0.03 to 0.1 µM.
The same measure for `Cc1ncnc(-c2ccccc2)c1CSC[C@H]1O[C@@H](n2cc(C#Cc3cncnc3)c3c(N)ncnc32)[C@H](O)[C@@H]1O` [Compound 239c, (2R,3R,4S,5S)-2-(4-Amino-5-(pyrimidin-5-ylethynyl)-7H-pyrrolo[2,3-d]pyrimidin-7-yl)-5-((((4-methyl-6-phenylpyrimidin-5-yl)methyl)thio)methyl)tetrahydrofuran-3,4-diol]: 0.03 to 0.1 µM.
As for `Cc1noc(-c2ccc(N)cc2)c1CSC[C@H]1O[C@@H](n2cc(C#Cc3cncnc3)c3c(N)ncnc32)[C@H](O)[C@@H]1O` [Compound 241c, (2R,3R,4S,5S)-2-(4-Amino-5-(pyrimidin-5-ylethynyl)-7H-pyrrolo[2,3-d]pyrimidin-7-yl)-5-((((5-(4-aminophenyl)-3-methylisoxazol-4-yl)methyl)thio)methyl)tetrahydrofuran-3,4-diol], the 50% inhibitory concentration (IC50) lay in the range of 0.01 to 0.03 µM.
`Cc1ccc(-c2onc(C)c2CSC[C@H]2O[C@@H](n3cc(C#Cc4cncnc4)c4c(N)ncnc43)[C@H](O)[C@@H]2O)cc1C` [Compound 242c, (2R,3R,4S,5S)-2-(4-Amino-5-(pyrimidin-5-ylethynyl)-7H-pyrrolo[2,3-d]pyrimidin-7-yl)-5-((((5-(3,4-dimethylphenyl)-3-methylisoxazol-4-yl)methyl)thio)methyl)tetrahydrofuran-3,4-diol]: the concentration for half-maximal inhibition (IC50) fell in the range of 0.01 to 0.03 µM.
Take `Cc1noc(-c2ccc3c(c2)OCO3)c1CSC[C@H]1O[C@@H](n2cc(C#Cc3cncnc3)c3c(N)ncnc32)[C@H](O)[C@@H]1O` [Compound 243c, (2R,3R,4S,5S)-2-(4-Amino-5-(pyrimidin-5-ylethynyl)-7H-pyrrolo[2,3-d]pyrimidin-7-yl)-5-((((5-(benzo[d][1,3]dioxol-5-yl)-3-methylisoxazol-4-yl)methyl)thio)methyl)tetrahydrofuran-3,4-diol]: the IC50 was in the range of 0.01 to 0.03 µM.
In the case of `Cn1cnc(-c2ccccc2)c1CSC[C@H]1O[C@@H](n2cc(I)c3c(N)ncnc32)[C@H](O)[C@@H]1O` [Compound 244, (2R,3R,4S,5S)-2-(4-Amino-5-iodo-7H-pyrrolo[2,3-d]pyrimidin-7-yl)-5-((((1-methyl-4-phenyl-1H-imidazol-5-yl)methyl)thio)methyl)tetrahydrofuran-3,4-diol], the IC50 lay in the range of 0.01 to 0.03 µM.
The same measure for `Cc1nsc(-c2ccccc2)c1CSC[C@H]1O[C@@H](n2cc(I)c3c(N)ncnc32)[C@H](O)[C@@H]1O` [Compound 245, (2R,3R,4S,5S)-2-(4-Amino-5-iodo-7H-pyrrolo[2,3-d]pyrimidin-7-yl)-5-((((3-methyl-5-phenylisothiazol-4-yl)methyl)thio)methyl)tetrahydrofuran-3,4-diol]: 0.03 to 0.1 µM; for `Cc1ncnc(-c2ccccc2)c1CSC[C@H]1O[C@@H](n2cc(I)c3c(N)ncnc32)[C@H](O)[C@@H]1O` [Compound 246, (2R,3R,4S,5S)-2-(4-Amino-5-iodo-7H-pyrrolo[2,3-d]pyrimidin-7-yl)-5-((((4-methyl-6-phenylpyrimidin-5-yl)methyl)thio)methyl)tetrahydrofuran-3,4-diol]: 0.01 to 0.03 µM.
